Measured values taken from US6750244B2, “Compounds active at a novel site on receptor-operated calcium channels useful for treatment of neurological disorders and diseases” (NPS Pharmaceuticals, Inc., priority 1993, dated 2004).
Read-outs that look alike come from different tables or passages of the source.

How the values were obtained:
NMDA receptor = experiment: Inhibition of NMDA/glycine-induced increases in intracellular calcium in cultured rat cerebellar granule cells (RCGC); type: cell-based; conditions: NMDA/glycine-induced increases in intracellular calcium, cultured rat cerebellar granule cells; read-out: IC50 (μM) vs. NMDA
[1] = biological target: NMDA receptor-ionophore complex (site labeled by [3H]MK-801); experiment: Inhibition of [3H]MK-801 binding in rat cortical/hippocampal washed membrane preparations; conditions: read-out: IC50 (μM) vs. [3H]MK-801; rat cortical/hippocampal washed membranes
[2] = test system: central muscarinic cholinergic receptor; type: binding, rat
dopamine uptake site = biological target: T1, dopamine uptake site (Cavia porcellus, UniProt H0WCX4); experiment: Dopamine uptake binding assay: [3H]WIN-35,428 binding to guinea pig striatal membranes
T1 construct: from tissue; host or cells: guinea pig striatal membranes (per the assay title)
T1 sequence (H0WCX4 1-619): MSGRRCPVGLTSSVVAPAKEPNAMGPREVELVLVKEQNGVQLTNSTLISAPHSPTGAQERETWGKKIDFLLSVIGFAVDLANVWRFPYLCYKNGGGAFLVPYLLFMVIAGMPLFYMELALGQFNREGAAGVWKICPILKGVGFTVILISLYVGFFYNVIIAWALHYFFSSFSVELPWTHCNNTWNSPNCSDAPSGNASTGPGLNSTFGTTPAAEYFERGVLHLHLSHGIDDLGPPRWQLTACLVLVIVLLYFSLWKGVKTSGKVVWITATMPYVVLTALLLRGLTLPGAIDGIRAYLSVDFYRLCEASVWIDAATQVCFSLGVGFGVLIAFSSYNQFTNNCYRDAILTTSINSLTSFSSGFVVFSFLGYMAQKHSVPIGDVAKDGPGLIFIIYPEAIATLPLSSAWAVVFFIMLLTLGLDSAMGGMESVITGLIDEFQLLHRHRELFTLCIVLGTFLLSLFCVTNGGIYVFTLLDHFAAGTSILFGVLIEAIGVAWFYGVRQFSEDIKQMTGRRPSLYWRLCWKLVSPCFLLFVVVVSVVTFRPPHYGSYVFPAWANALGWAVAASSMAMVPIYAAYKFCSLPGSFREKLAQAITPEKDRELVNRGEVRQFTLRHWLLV

[3] = biological target: T2, norepinephrine uptake site (Rattus norvegicus, UniProt Q63380); experiment: Norepinephrine uptake binding assay: [3H]desipramine binding to rat cortical membranes
T2 construct: from tissue; host or cells: rat cortical membranes (per the assay title)
T2 sequence (Q63380 1-617): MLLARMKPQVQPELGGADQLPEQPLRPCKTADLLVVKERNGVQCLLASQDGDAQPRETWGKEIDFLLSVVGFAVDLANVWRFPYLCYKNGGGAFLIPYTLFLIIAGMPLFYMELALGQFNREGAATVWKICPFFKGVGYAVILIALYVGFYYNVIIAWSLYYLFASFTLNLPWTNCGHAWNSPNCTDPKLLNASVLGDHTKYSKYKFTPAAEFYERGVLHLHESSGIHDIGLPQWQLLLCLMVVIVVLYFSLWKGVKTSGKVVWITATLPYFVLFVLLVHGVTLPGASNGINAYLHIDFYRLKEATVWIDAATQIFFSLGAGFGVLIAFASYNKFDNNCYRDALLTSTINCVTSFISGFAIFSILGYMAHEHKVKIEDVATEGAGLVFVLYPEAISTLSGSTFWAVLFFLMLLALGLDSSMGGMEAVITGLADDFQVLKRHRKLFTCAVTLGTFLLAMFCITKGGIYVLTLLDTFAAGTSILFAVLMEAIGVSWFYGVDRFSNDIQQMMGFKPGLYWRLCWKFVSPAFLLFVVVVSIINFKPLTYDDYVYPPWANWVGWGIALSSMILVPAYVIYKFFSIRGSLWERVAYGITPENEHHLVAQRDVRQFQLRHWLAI

serotonin uptake site = biological target: T3, serotonin uptake site (Rattus norvegicus, UniProt P31652); experiment: Serotonin uptake binding assay: [3H]citalopram binding to rat forebrain membranes
T3 construct: from tissue; host or cells: rat forebrain membranes (per the assay title)
T3 sequence (P31652 whole entry): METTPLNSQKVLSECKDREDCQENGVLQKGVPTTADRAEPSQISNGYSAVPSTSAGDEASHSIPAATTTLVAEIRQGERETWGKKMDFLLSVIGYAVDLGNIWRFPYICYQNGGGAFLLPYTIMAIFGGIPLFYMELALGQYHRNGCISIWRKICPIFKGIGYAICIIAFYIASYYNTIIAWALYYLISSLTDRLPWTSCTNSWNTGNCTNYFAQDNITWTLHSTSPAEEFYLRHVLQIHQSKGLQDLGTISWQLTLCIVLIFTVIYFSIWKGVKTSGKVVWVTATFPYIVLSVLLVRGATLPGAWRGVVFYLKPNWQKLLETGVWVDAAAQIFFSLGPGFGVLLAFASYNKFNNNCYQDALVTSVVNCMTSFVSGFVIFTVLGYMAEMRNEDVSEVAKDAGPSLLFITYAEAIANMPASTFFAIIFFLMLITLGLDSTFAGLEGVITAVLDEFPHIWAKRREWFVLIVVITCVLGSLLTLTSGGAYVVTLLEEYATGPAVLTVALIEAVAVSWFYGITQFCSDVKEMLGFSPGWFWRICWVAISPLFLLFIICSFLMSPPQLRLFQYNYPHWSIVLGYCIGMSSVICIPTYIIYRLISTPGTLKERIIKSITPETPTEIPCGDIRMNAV

sound-induced seizures = experiment: Sound-induced seizures in Frings mice (reflex epilepsy); type: in vivo; conditions: Mus musculus, Frings mice
[4] = test system: maximal electroshock-induced seizures; experiment: Maximal electroshock-induced seizures in rats; type: in vivo; conditions: Rattus norvegicus, po, read-out: ED50, maximal electroshock-induced seizures
thermal nociception [5] = type: in vivo, rats; conditions: 25 mg/kg i.p.
Method: In these experiments, a 52° C. hot plate was used as the nociceptive stimulus.

thermal nociception [6] = type: in vivo, rats; conditions: 25 mg/kg i.p.; remark: listed apart in the source
Method: In this standard assay, the thermal nociceptive stimulus was 52° C. warm water with the latency to tail flick or withdrawal taken as the endpoint.

in vivo = conditions: Frings, mouse, in vivo
Method: (§1) In this assay, Frings and CF1 mice were injected with test compound and placed on a knurled rod which rotated at a speed of 6 rpm. The ability of the mice to maintain equilibrium for long periods of time was determined; those mice that were unable to maintain equilibrium on the rotorod for 1 min in each of 3 trials were considered impaired.

motor performance = experiment: Acute motor impairment (rotorod) in mice; conditions: Frings mice, i.p.
Method: as §1

focal ischemic stroke = experiment: Rat model of focal ischemic stroke (vessel occlusion); type: in vivo, rats; conditions: i.p. 2 mg/kg 30 min prior to vessel occlusion and 2 mg/kg 3 hr post-occlusion
[7] = test system: mean arterial blood pressure; conditions: i.v.
[8] = Motor toxicity (TD50) in rats; conditions: rat, in vivo, po
seizure threshold = experiment: i.v. Metrazol test (seizure threshold) in mice; type: in vivo; conditions: 11.7 mg/kg i.p.
L-type calcium channel = test system: T4, L-type calcium channel; experiment: Inhibition of KCl depolarization-induced increases in intracellular calcium in cultured rat cerebellar granule cells; type: cell-based; conditions: cultured rat cerebellar granule cells; read-out: L-type calcium channel: estimated IC50, KCl depolarization-induced increases in intracellular calcium
T4 construct: L-type calcium channel: estimated IC50, KCl depolarization-induced increases in intracellular calcium; other: cultured
Text: The ability of arylalkylamines to inhibit dihydropyridine-sensitive Ca^2+ channels was examined in cerebellar granule cells and a rat aortic smooth muscle cell line, A7r5 cells.

PBQ-elicited writhing = type: in vivo; conditions: 4 mg/kg i.p.
Method: In the first series of experiments, the animals were administered an unpleasant stimulus (2-phenyl-1,4-benzoquinone, PBQ) which elicits a writhing response (abdominal stretching). Typically, the number of writhes occurring in a 5 min observation period is recorded. […] Nonsteroidal antiinflammatory agents are likewise effective in this model.

SMILES | IC50 (NMDA receptor) [µM] | IC50 [1] [µM] | Central muscarinic cholinergic receptor: percent block of [3H]QNB binding ([2]; at 0.1 μM) [% at] | Central muscarinic cholinergic receptor: percent block of [3H]QNB binding ([2]; at 10 μM) [% at] | Monoamine uptake binding assays: dopamine uptake binding assay, percent block (dopamine uptake site; at 0.1 μM) [% at] | Monoamine uptake binding assays: dopamine uptake binding assay, percent block (dopamine uptake site; at 10 μM) | Monoamine uptake binding assays: norepinephrine uptake binding assay, percent block ([3]; at 0.1 μM) | Monoamine uptake binding assays: norepinephrine uptake binding assay, percent block ([3]; at 10 μM) | Monoamine uptake binding assays: serotonin uptake binding assay, percent block (serotonin uptake site; at 0.1 μM) | Monoamine uptake binding assays: serotonin uptake binding assay, percent block (serotonin uptake site; at 10 μM) | ED50 (sound-induced seizures; ip) [mg/kg] | neuroprotectant activity in a rat model of focal ischemic stroke (focal ischemic stroke) | no significant cardiovascular activity in anesthetized rats at doses up to [7] | TD50 (in vivo; ip) [mg/kg] | also measured
C[C@H](N)CC(c1cccc(F)c1)c1cccc(F)c1 [Compound 50, 3,3-bis(3-fluorophenyl)-1-methyl-1-propylamine] | 0.089 | 0.762 | 11 | 0.184 | 17 | 0.1^f93% at | 10% at | 0.1^g78% at | 10^g75% at | 0.1^h97% at | 2.7 | significant neuroprotectant activity | up to 5 mg/kg |  | ED50 (sound-induced seizures; oral): 9 mg/kg; ED50 [4]: 28 mg/kg; analgesic activity, rat 52° C. hot plate test (thermal nociception [5]): no significant analgesic activity; analgesic activity, rat 48° C. tail flick test (thermal nociception [6]): no significant analgesic activity; TD50 (in vivo; po): 18.9 mg/kg; TD50 (motor impairment) (motor performance): 17.4 mg/kg; TD50 [8]: 20 mg/kg
CCNCCC(c1cccc(F)c1)c1cccc(F)c1 [Compound 59, N-ethyl-3,3-bis(3-fluorophenyl)-1-propylamine] | 0.272 | 0.453 | 9 | 0.187 | 2 | 0.1^f78% at | 10^f7% at | 0.1^g51% at | 10^g14% at | 0.1^h86% at | 2.7 | no significant neuroprotectant activity | up to 10 mg/kg | 7.8 | seizure threshold, i.v. Metrazol test (seizure threshold): a reduction in seizure threshold
Cc1ccc(F)cc1C(CCN)c1cc(F)ccc1C [Compound 58, 3,3-bis(3-fluoro-6-methylphenyl)-1-propylamine] | 0.028 | 0.203 | 1 | 0.148 | 0 | 0.1^f45% at | 10^f1% at | 0.1^g67% at | 10^g27% at | 0.1^h95% at | 0.9 | no significant neuroprotectant activity | up to 2 mg/kg | 14.5 | IC50 (L-type calcium channel): 2.6 µM
CN1CC[C@]23c4c5ccc(O)c4O[C@H]2[C@@H](O)C=C[C@H]3[C@H]1C5 [morphine, reference compound] |  |  |  |  |  |  |  |  |  |  |  |  |  |  | block of the writhing response (PBQ-elicited writhing): 100%
